In article PMC9767854, “Discovery and mechanism studies of a novel ATG4B inhibitor Ebselen by drug repurposing and its anti-colorectal cancer effects in mice” (Cell & Bioscience, 2022):

Assays:
xenografted tumors = test: Autophagy, apoptosis and Ki67 markers in xenografted tumors; assay type: in vivo, BALB/c-nu/nu mice
Experimental: Fig. 7 Ebselen suppresses colorectal cancer tumor growth. A A brief diagram of the animal experiment for subcutaneous xenografted tumor model. 2 × 10^6 (2e^6) SW620 cells were xenografted into BALB/c-nu/nu mice by subcutaneous injection (s.c.). After 10 days, mice were injected intraperitoneally (i.p.) with indicated doses of Ebselen every two days, and monitoring of tumor volume and body weight changes were performed. B–D Representative tumor images and tumor weight at the end time point were captured from SW620 cell-based xenografts. Mean tumor weight ± SEM (C) and mean tumor volume ± SEM (D) were shown. E The inhibitory effect of ATG4 in xenografted tumors was detected by FRET assay. F, I The protein level of autophagy and apoptosis in xenografted tumors were detected by western blot. Representative results were shown and the statistical results of each group were obtained from seven mice. J, K The immunohistochemistry analysis of Ki67 in xenografted tumors (group vehicle and Ebselen 10 mg/kg). Bar = 20 μm. The positive Ki67 area rate was obtained from the ratio of positive Ki67 area to total cell area by Image J
Four- to six-weeks-old BALB/C nu/nu female mice purchased from the Experimental Animal Center of Sun Yat-Sen University, were approved by the Animal Ethics Committee at Sun Yat-sen University and kept in specific-pathogen-free environment. Approximately 2 × 10^6 SW620 cells or 1 × 10^7 HCT116 cells were injected subcutaneously into the dorsal flank on the right side of the mice. Different groups were divided randomly when the tumor volume was approximately 60–80 mm^3, before drug administration intraperitoneally (i.p.). Tumor volume was measured by calipers and calculated using the equation: 0.5 × length × width^2. At the end of the experiments, the mice were sacrificed and tumors were dissected and weighed. In particular, we employed Servicebio (Wuhan, China) to carry out H&E staining and immunohistochemistry assay.

ATG4B = biological target: T1, ATG4B (Homo sapiens, UniProt Q9Y4P1); test: Gel-based assay (SDS-PAGE and CBB staining of FRET-GATE-16 cleavage); assay type: biochemical; conditions: 1 μM
T1 construct: 6xHis; made in house; host or cells: E. coli BL21(DE3)
T1 sequence (Q9Y4P1 1-393): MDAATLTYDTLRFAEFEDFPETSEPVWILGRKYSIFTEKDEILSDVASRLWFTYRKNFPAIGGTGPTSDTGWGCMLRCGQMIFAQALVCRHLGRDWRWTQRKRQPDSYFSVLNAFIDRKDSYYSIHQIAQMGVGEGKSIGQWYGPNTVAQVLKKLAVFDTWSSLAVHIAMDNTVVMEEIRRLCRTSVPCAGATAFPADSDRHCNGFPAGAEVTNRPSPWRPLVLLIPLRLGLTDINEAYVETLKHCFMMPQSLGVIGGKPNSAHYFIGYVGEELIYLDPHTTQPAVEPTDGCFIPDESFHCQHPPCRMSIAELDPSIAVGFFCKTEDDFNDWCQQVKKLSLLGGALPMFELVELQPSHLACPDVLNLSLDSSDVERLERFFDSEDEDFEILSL
Experimental: Taking ATG4B as the target, we used the high-throughput FRET-based assay to screen the FDA-approved drugs library containing 1600 compounds (Fig. 1A). […] (Additional file 1: Figure S1C). Then twenty-four candidate compounds (marked in red) were noted through an initial screening at 10 μM (Fig. 1B). To further validate their inhibitory effect, a more rigorous and authentic approach as gel-based assay was carried out (Fig. 1C). The brake of the cleavage reaction of the substrate FRET-GATE-16 was very intuitively reflective of the compounds’ inhibitory effect on the ATG4B enzymatic activity. […] This was also verified in the FRET- and gel-based full concentration-response plot of compound 669 (Fig. 1D, E).
Fig. 1 Screening of ATG4B inhibitors based on the approved drugs library by FRET assay. A Illustration of the FRET-based high-throughput screening platform for ATG4B inhibitors. B Scatter plot of inhibition rate of approved library for ATG4B based on FRET assay. Candidate compounds were marked in red. […] C The inhibitory effect of twenty-four candidate compounds (10 μM) were detected by SDS-PAGE and Coomassie brilliant blue (CBB) staining according to the cleavage of substrates. […] D The dose-dependent inhibition of compound 669 (Ebselen) were determined by SDS-PAGE.

O=c1c2ccccc2[se]n1-c1ccccc1 [Ebselen]
Ki67 positivity in tumors (xenografted tumors; Ebselen 10 mg/kg, immunohistochemistry): significant reduction of Ki67 positivity | autophagy flux in tumors (LC3-II, p62) (xenografted tumors; compared with the vehicle group): significantly inhibited | apoptosis of tumors (xenografted tumors; western blot): inhibited the apoptosis of tumors in a dose-dependent manner | inhibition of ATG4B in gel (ATG4B): complete inhibition
